# Assay results reported in US20030225002A1, “Co-therapy for the treatment of migraine comprising anticonvulsant derivatives and anti-migraine agents” (priority 2002, published 2003).
# How the values were obtained:
# [1] = tested on: kindled epilepsy; conditions: animal model of kindled epilepsy; cited from earlier work
# [2] = tested on: severe refractory migraine with and without aura; test: Case Study 3: severe refractory migraine with and without aura; format: in vivo, human
# Description: The patient was a person with a twenty-year history of severe refractory migraine with and without aura. […] The patient was started on topiramate at 50 mg/day increasing to 100 mg in the morning and 100 mg in the evening, in combination with INDERAL at 160 mg/day. […] After about 6 months, the patient was prescribed EFFEXOR XR (vanlafaxine HCl) at 37 mg/day, an increased topiramate dose of 125 mg in the morning and 150 mg in the evening, and 160 mg/day INDERAL.
# [3] = tested on: subjects with migraine; test: Clinical Study Trials #1 and #2: severity of photophobia associated with migraine headaches; format: in vivo, human; conditions: for Severity of Photophobia Associated Migraine Headaches, Baseline / Severity of Photophobia Associated Migraine Headaches, Double-Blind / Severity of Photophobia Associated Migraine Headaches, Difference: scale 0 to 3; for Severity of Photophobia Associated Migraine Headaches, Baseline / Severity of Photophobia Associated Migraine Headaches, Double-Blind: triptan rescue therapy; for Severity of Photophobia Associated Migraine Headaches, Double-Blind: Double-Blind Phase; for Severity of Photophobia Associated Migraine Headaches, Difference: Double-Blind minus Baseline
# Description: (§1) The primary objective of these studies was to evaluate the safety and efficacy of three doses of topiramate (50, 100, and 200 mg/day) versus placebo in the prophylaxis of migraine based on the change in the monthly (28 day) migraine period rate from the Prospective Baselin,e Period to the Double-Blind Phase. The secondary objectives for the studies were to assess dose response relationship, and to evaluate the effect of prophylactic treatment with topiramate (50, 100, and 200 mg/day) versus placebo on Health-Related Quality of Life (HRQL).
# (§2) The studies were randomized, double-blind, placebo-controlled, parallel-group, multicenter studies. Male and female subjects were randomized equally to the four treatment groups.
# (§3) While the IHS criteria was used to establish the diagnosis at study entry, the evaluation of efficacy was based on migraine periods. A migraine period was defined as the length of time between the onset and cessation of painful migraine symptoms. This period could last up to, but no longer than, 24 hours. If the painful symptoms persisted more than 24 hours after their initial onset, this was considered to be a new, distinct migraine period. If symptoms recurred within 24 hours of the initial onset, this was considered part of the same, initial period.
# (§4) Subjects who completed the Baseline Phase and met the entry criteria were randomized to one of four treatment groups: 50 mg/day topiramate, 100 mg/day topiramate, 200 mg/day topiramate or placebo. The Double-Blind Phase had two periods: Titration and Maintenance, which are described in more detail below.
# (§5) The Titration Period immediately followed the Baseline Phase and extended for eight weeks (56 days). During this period, subjects randomized to topiramate were started at a dose of 25 mg/day and the daily dose was increased by 25 mg weekly until they reach their assigned dose (or maximum tolerated dose, whichever is less). From the third week of Titration until the end of the Maintenance Period, a maximum of two dose level reductions were permitted for unacceptable tolerability problems. If the subject was still in the Titration Period after a dose reduction, rechallenge may have occurred in an attempt to achieve the subject's assigned dose, and, if unsuccessful, the dose may have been reduced again to the original reduced dose. Subjects who had their study medication dose decreased twice, and were still experiencing unacceptable tolerability problems that warranted additional dose reductions, exited the study. Clinic visits occurred on Day 29 (Visit 3) and Day 57 (Visit 4/End of Titration).
# (§6) During this 18-week period, the subjects remained on the dose of study medication reached at the end of the Titration Period (the assigned dose or the maximum tolerated dose). If the subject experienced unacceptable tolerability problems, the dose was reduced, only one dose reduction was permitted in the maintenance. No rechallenge was permitted during the Maintenance Period, so that subject continued on the reduced dose for the remainder of the period. Subjects who already had their study medication dose decreased by two levels, and were still experiencing unacceptable tolerability problems that warranted additional dose reductions exited the study. Clinic visits occurred on Day 85 (Visit 5), Day 113 (Visit 6), Day 141 (Visit 7) and Day 183 (Visit 8/ Double-Blind Final Visit or Early Withdrawal).
# (§7) Subjects were randomized to one of four treatment groups: a) placebo, b) 50 mg/day topiramate, c) 100 mg/day topiramate, or d) 200 mg/day topiramate. All subjects received study medication in a b.i.d. dosing regimen except during the first week of Titration, during which they took single evening doses.
# (§8) In keeping with good pain management practices, subjects enrolled in these studies were permitted to take acute abortive/rescue medication as indicated for the treatment of pain during migraine/headache attacks. […]
# [4] = tested on: subjects with migraine; test: Clinical Study Trials #1 and #2: duration of migraine headaches, topiramate with triptan rescue therapy; format: in vivo, human; conditions: for Duration of Migraine Headaches, Baseline / Duration of Migraine Headaches, Double-Blind: triptan rescue therapy; for Duration of Migraine Headaches, Double-Blind: Double-Blind Phase; for Duration of Migraine Headaches, Difference: Double-Blind minus Baseline
# Description: as §1, §2, §3, §4, §5, §6, §7, §8
# [5] = tested on: simple and complex partial seizures and secondarily generalized seizures; conditions: clinical trials of human epilepsy; cited from earlier work
# [6] = tested on: persistent daily headache with migraine features; test: Case Study 1: persistent daily headache with migraine features; format: in vivo, human; conditions: topiramate 75 mg/day with INDERAL at 20 mg/day
# Description: The patient was a person with persistent daily headache with migraine features.
# [7] = tested on: subjects with migraine; test: Clinical Study Trials #1 and #2: severity of migraine headaches, topiramate with triptan rescue therapy; format: in vivo, human; conditions: for Severity of Migraine Headaches, Baseline / Severity of Migraine Headaches, Double-Blind: triptan rescue therapy; for Severity of Migraine Headaches, Double-Blind: Double-Blind Phase; for Severity of Migraine Headaches, Difference: Double-Blind minus Baseline
# Description: as §1, §2, §3, §4, §5, §6, §7, §8
# [8] = tested on: subjects with migraine; test: Clinical Study Trials #1 and #2: severity of nausea associated with migraine headaches; format: in vivo, human; conditions: for Severity of Nausea Associated Migraine Headaches, Baseline / Severity of Nausea Associated Migraine Headaches, Double-Blind / Severity of Nausea Associated Migraine Headaches, Difference: scale 0 to 3; for Severity of Nausea Associated Migraine Headaches, Baseline / Severity of Nausea Associated Migraine Headaches, Double-Blind: triptan rescue therapy; for Severity of Nausea Associated Migraine Headaches, Double-Blind: Double-Blind Phase; for Severity of Nausea Associated Migraine Headaches, Difference: Double-Blind minus Baseline
# Description: as §1, §2, §3, §4, §5, §6, §7, §8
structure (smiles),measurement,setting,value
"CC1(C)O[C@@H]2[C@@H](CO[C@@]3(COS(N)(=O)=O)OC(C)(C)O[C@@H]23)O1 [topiramate, 2,3:4,5-bis-O-(1-methylethylidene)-β-D-fructopyranose sulfamate]",Block of seizures,[1],effectively block seizures
same,Response of severe refractory migraine,[2]; topiramate 100 mg in the morning and 100 mg in the evening with INDERAL at 160 mg/day,"initial positive response, but the headaches broke through"
same,Response of severe refractory migraine,"[2]; topiramate 125 mg morning and 150 mg evening, EFFEXOR XR 37 mg/day, INDERAL 160 mg/day",Modest but sustained improvement
same,"Severity of Photophobia Associated Migraine Headaches, Baseline",[3]; TPM 50 mg,1.83
same,"Severity of Photophobia Associated Migraine Headaches, Double-Blind",[3]; TPM 50 mg,1.68
same,"Severity of Photophobia Associated Migraine Headaches, Difference",[3]; TPM 50 mg,−0.14
same,"Severity of Photophobia Associated Migraine Headaches, Baseline",[3]; TPM 100 mg,1.77
same,"Severity of Photophobia Associated Migraine Headaches, Double-Blind",[3]; TPM 100 mg,1.58
same,"Severity of Photophobia Associated Migraine Headaches, Difference",[3]; TPM 100 mg,−0.19
same,"Severity of Photophobia Associated Migraine Headaches, Baseline",[3]; TPM 200 mg,1.62
same,"Severity of Photophobia Associated Migraine Headaches, Double-Blind",[3]; TPM 200 mg,1.57
same,"Severity of Photophobia Associated Migraine Headaches, Difference",[3]; TPM 200 mg,−0.05
same,"Statistical significance of effect, text under Table 4 (in words)",[3]; patients taking 100 mg topiramate in Study 1,Statistically significant differences in the severity of nausea
same,Effect on severity of associated photophobia (in words),"[3]; topiramate with triptan rescue medication vs triptan rescue alone, measurable at 50 mg and 100 mg",decreased the severity of associated photophobia
same,Effect on duration of headaches (in words),[4]; 200 mg topiramate treatment,duration of headaches increased
same,"Duration of Migraine Headaches, Baseline",[4]; TPM 50 mg,12.77 h
same,"Duration of Migraine Headaches, Double-Blind",[4]; TPM 50 mg,11.60 h
same,"Duration of Migraine Headaches, Difference",[4]; TPM 50 mg,-1.17 h
same,"Duration of Migraine Headaches, Baseline",[4]; TPM 100 mg,14.75 h
same,"Duration of Migraine Headaches, Double-Blind",[4]; TPM 100 mg,13.17 h
same,"Duration of Migraine Headaches, Difference",[4]; TPM 100 mg,-1.59 h
same,"Duration of Migraine Headaches, Baseline",[4]; TPM 200 mg,10.84 h
same,"Duration of Migraine Headaches, Double-Blind",[4]; TPM 200 mg,12.05 h
same,"Duration of Migraine Headaches, Difference",[4]; TPM 200 mg,+1.21 hours
same,Effect on duration of a migraine headache (in words),"[4]; topiramate with triptan rescue medications, groups taking 50 mg and 100 mg",numerically measurable decrease in the duration of a migraine headache
same,Efficacy in treating simple and complex partial seizures and secondarily generalized seizures,[5],effective as adjunctive therapy or as monotherapy
same,Effect on daily headaches,[6],significant improvement and resolution of the daily headaches
same,Migraine headache frequency on treatment,[6],approximately one per week
same,"Severity of Migraine Headaches, Baseline","[7]; TPM 50 mg, scale 0 to 3 (0=none, 3=severe)",2.32
same,"Severity of Migraine Headaches, Double-Blind","[7]; TPM 50 mg, scale 0 to 3",2.18
same,"Severity of Migraine Headaches, Difference","[7]; TPM 50 mg, scale 0 to 3",−0.13
same,"Severity of Migraine Headaches, Baseline","[7]; TPM 100 mg, scale 0 to 3",2.33
same,"Severity of Migraine Headaches, Double-Blind","[7]; TPM 100 mg, scale 0 to 3",2.14
same,"Severity of Migraine Headaches, Difference","[7]; TPM 100 mg, scale 0 to 3",−0.19
same,"Severity of Migraine Headaches, Baseline","[7]; TPM 200 mg, scale 0 to 3",2.26
same,"Severity of Migraine Headaches, Double-Blind","[7]; TPM 200 mg, scale 0 to 3",2.16
same,"Severity of Migraine Headaches, Difference","[7]; TPM 200 mg, scale 0 to 3",−0.10
same,Statistical significance of effect on severity of migraine headaches (in words),[7]; patient group taking 100 mg topiramate,Statistically significant results
same,Effect on severity of migraine headaches (in words),"[7]; topiramate in combination with triptan rescue medication vs rescue medications alone, 50, 100 and 200 mg",decrease in the severity of migraine headaches
same,"Severity of Nausea Associated Migraine Headaches, Baseline",[8]; TPM 50 mg,1.17
same,"Severity of Nausea Associated Migraine Headaches, Double-Blind",[8]; TPM 50 mg,1.17
same,"Severity of Nausea Associated Migraine Headaches, Difference",[8]; TPM 50 mg,−0.01
same,"Severity of Nausea Associated Migraine Headaches, Baseline",[8]; TPM 100 mg,1.22
same,"Severity of Nausea Associated Migraine Headaches, Double-Blind",[8]; TPM 100 mg,1.12
same,"Severity of Nausea Associated Migraine Headaches, Difference",[8]; TPM 100 mg,−0.10
same,"Severity of Nausea Associated Migraine Headaches, Baseline",[8]; TPM 200 mg,1.12
same,"Severity of Nausea Associated Migraine Headaches, Double-Blind",[8]; TPM 200 mg,1.09
same,"Severity of Nausea Associated Migraine Headaches, Difference",[8]; TPM 200 mg,−0.03
same,Statistical significance of effect on severity of nausea (in words),[8]; patients taking 100 mg topiramate,Statistically significant differences in the severity of nausea
same,Effect on severity of nausea associated with migraine headaches (in words),"[8]; topiramate with triptan class rescue medications, measurable at 100 mg and 200 mg",decrease in the severity of nausea
